According to patent US20190352339A1, “PEPTIDE INHIBITOR OF TRANSMEMBRANE PORE FORMATION AND EFFLUXPUMP FUNCTION IN A SMALL MULTIDRUG RESISTANCE PROTEIN FROM PSEUDOMONAS AERUGINOSA” (priority 2017, published 2019):
Square brackets hold non-standard residues; d marks the D form. Peptide text beside a SMILES is read from it. Sar = CNCC(=O)O

Assays:
Hsmr = experiment: EtBr efflux assay, E. coli expressing Hsmr; type: cell-based, Halobacterium salinarum; settings: E. coli cells expressing Hsmr, EtBr fluorescence decay
Method: (§1) FIG. 4. (A) Proof-of-concept: Inhibition of Hsmr activity by an SMR TM4-mimic peptide. Hsmr-mediated efflux of the fluorescent toxicant ethidium bromide (EtBr) from E. coli cells upon treatment with a peptide derived from Hsmr TM4(85-105) [sequence shown]. Curves represent the change in EtBr fluorescence upon exiting the bacteria. Ac-A=acetyl-Ala. The black line indicates efflux by Hsmr in the absence of peptide; red line=efflux after addition of 1 μM TM4 peptide. The % efflux is compared in the black and red bars at the right. (B) Bioactivity profiles of designed SMR drug efflux inhibitor peptides. Four assays—EtBr efflux activity (Efflux), EtBr resensitization (ER), antimicrobial activity (AA), and hemolytic activity in human red blood cells (RBC) are depicted for linear peptides TM4(85-105) (left panel), and TM4(88-100) (centre); and stapled (S) peptide S-TM4(88-100)-N95 (right). Values for ER, AA and RBCs are given as the minimal inhibitory (MIC) or hemolytic concentration (MHC) (right axis).
FIG. 5. (A) Ethidium bromide efflux from E. coli bacteria expressing Hsmr. Peptides were added to ethidium bromide (EtBr) treated cells and incubated for 1 hr. The fluorescence of EtBr drops as the toxin is effluxed from the cells. ‘No peptide’ (maximum efflux control) is depicted in black. The core sequences of the peptides studied are based on the consensus sequence in Table 1. Residues in red emphasize retention of the common SMR TM4-TM4 interface in pathogenic bacteria. (B) EtBr efflux from E. coli containing plasmid-borne SMR from P. aeruginosa, (Psmr), as mediated by peptide LIN (full sequence=Ac-A(Sar)3-^88IIGIALINAGVVV^100-KKK-NH2). This experiment was performed as described in FIG. 4. […]
EtBr efflux represents a rapid and validated means by which to screen for SMR-mediated resistance activity [Poulsen and Deber, 2012, Antimicrob. […] Upon its removal, EtBr efflux is monitored by fluorescence decay.

[1] = test system: human red blood cells (RBCs); type: cell-based; settings: for minimal hemolytic concentration (MHC): red cells of human
Method: as §1
As a necessary measure for any projected clinical applications of the designed inhibitors, hemolytic activity of peptides is assayed in human RBCs to confirm mammalian cell tolerance [Yin et al., 2012, J. Biol. Chem. 287, 7738-7745].

E. coli = experiment: EtBr resensitization assay; type: cell-based; settings: sublethal toxicant plus peptide; FIG. 4B, result in words
Method: as §1
Resensitization to EtBr and other toxic SMR substrates are evaluated by incubating the bacteria with a sublethal concentration of the toxicant and twofold dilutions of peptide at 37° C. for 20 hr, after which bacterial growth (or lack thereof) is evaluated [Bellman-Sickert et al., 2015, J. Biol. Chem. 290, 1752-1759]. […]

[2] = target: T1, SMR from P. aeruginosa (Psmr) (Pseudomonas aeruginosa, UniProt Q9HUH5); experiment: EtBr efflux assay, E. coli containing plasmid-borne Psmr; type: cell-based; settings: 8 μM peptide; FIG. 5B
T1 construct: expressed in transfected cells; host or cells: E. coli
T1 sequence (Q9HUH5 whole entry, looked up): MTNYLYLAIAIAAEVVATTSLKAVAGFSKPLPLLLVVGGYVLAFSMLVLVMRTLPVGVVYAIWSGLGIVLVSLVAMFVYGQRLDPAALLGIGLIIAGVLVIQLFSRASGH
Method: FIG. 5. (A) Ethidium bromide efflux from E. coli bacteria expressing Hsmr. Peptides were added to ethidium bromide (EtBr) treated cells and incubated for 1 hr. The fluorescence of EtBr drops as the toxin is effluxed from the cells. ‘No peptide’ (maximum efflux control) is depicted in black. The core sequences of the peptides studied are based on the consensus sequence in Table 1. Residues in red emphasize retention of the common SMR TM4-TM4 interface in pathogenic bacteria. (B) EtBr efflux from E. coli containing plasmid-borne SMR from P. aeruginosa, (Psmr), as mediated by peptide LIN (full sequence=Ac-A(Sar)3-^88IIGIALINAGVVV^100-KKK-NH2). This experiment was performed as described in FIG. 4.
EtBr efflux represents a rapid and validated means by which to screen for SMR-mediated resistance activity [Poulsen and Deber, 2012, Antimicrob. Agents Chemother. 56, 3911-3916]. Here, E. coli cells are incubated with the peptide, EtBr and carbonyl cyanide 3-chlorophenylhydrazone (CCCP), a widely-used ionophore that acts as a disruptor of the proton-motive force. Upon its removal, EtBr efflux is monitored by fluorescence decay.
In this context, we have recently performed two pilot studies. […]

[3] = test system: E. coli (BL21 strain) overexpressing the SMR from P. aeruginosa (Psmr); experiment: Resensitization of bacteria to growth inhibition by benzalkonium chloride (BZK); type: cell-based; settings: for inhibition of bacterial growth, single agent: agent alone (sublethal BZK or non-toxic dose of peptide); for inhibition of bacterial growth, single agent / inhibition of bacterial growth, peptide together with BZK: result in words; for inhibition of bacterial growth, peptide together with BZK: sub-lethal concentration of BZK plus peptide
Method: FIG. 7. Resensitization of bacteria to growth inhibition by the disinfectant benzalkonium chloride (BZK). […] However, when the BZK and TM4 peptide were both present at the same concentrations, the bacterial growth was reduced to <1% [i.e., inhibited to >99% (arrow)]. As a control, the same experiment was performed with a ‘scrambled’ version of TM4 peptide (termed SCR control), having identical amino acid composition but lacking the GG7 motif for binding to Psmr and disruption of its native dimer. […] TM4 peptide=Ac-Ala-(Sar)3-[…]-KKK—NH2 (see also Table 1). SCR control peptide=Ac-Ala-(Sar)3-LLVLAGIGIIGLV-KKK—NH2.
Antimicrobial peptides are exciting leads in the development of novel biocidal agents. Such peptides are currently used commercially in topical formulations, such as the lipopeptides polymyxin B and daptomycin [Kalorama Information Market Intelligence Report, “Health Care Infection Control Market” (126 reports; published on-line May, 2016)]. […] 2013. p. 128]. Despite this, we are not aware of any reports of a peptide that inhibits and/or prevents bacterial resistance to BZK and to other biocide mainstays of hospital and health care facilities. In this context, we examined the ability of the prototypic inhibitor peptides described herein to resensitize pathogenic bacteria to BZK and related disinfectants.

[4] = sublethal BZK and non-toxic dose of peptide both present, FIG. 7

Row | Compound | inhibition of Hsmr-mediated EtBr efflux (Hsmr) | hemolytic activity [1] | minimal hemolytic concentration (MHC) [1] | inhibition of bacterial growth, single agent [3] | inhibition of bacterial growth, peptide together with BZK [3] | also measured
1 | CC[C@H](C)[C@H](NC(=O)[C@H](CC(C)C)NC(=O)[C@H](C)NC(=O)[C@H](CC(C)C)NC(=O)CNC(=O)[C@@H](NC(=O)[C@@H](NC(=O)CNC(=O)[C@H](C)NC(=O)[C@@H](NC(=O)CN(C)C(=O)CN(C)C(=O)CN(C)C(=O)[C@H](C)NC(C)=O)C(C)C)C(C)C)C(C)C)C(=O)N[C@H](C(=O)N[C@@H](C)C(=O)NCC(=O)N[C@H](C(=O)N[C@H](C(=O)N[C@H](C(=O)N[C@@H](CC(C)C)C(=O)N[C@@H](CC(N)=O)C(=O)N[C@H](C(=O)N[C@@H](C)C(=O)N[C@@H](CO)C(=O)N[C@@H](CCCCN)C(=O)N[C@@H](CCCCN)C(=O)N[C@@H](CCCCN)C(N)=O)C(C)C)C(C)C)C(C)C)C(C)C)C(C)C [TM4(85-105)] (Ac-A[Sar][Sar][Sar]VAGVVGLALIVAGVVVLNVASKKK-NH2) | specifically inhibit Hsmr-mediated efflux | partially hemolytic | ~10 µM |  |  | 
2 | CC[C@H](C)[C@H](NC(=O)[C@H](CC(C)C)NC(=O)[C@H](C)NC(=O)[C@H](CC(C)C)NC(=O)CNC(=O)[C@@H](NC(=O)[C@@H](NC(=O)CN(C)C(=O)CN(C)C(=O)CN(C)C(=O)[C@H](C)NC(C)=O)C(C)C)C(C)C)C(=O)N[C@H](C(=O)N[C@@H](C)C(=O)NCC(=O)N[C@H](C(=O)N[C@H](C(=O)N[C@H](C(=O)N[C@@H](CCCCN)C(=O)N[C@@H](CCCCN)C(=O)N[C@@H](CCCCN)C(N)=O)C(C)C)C(C)C)C(C)C)C(C)C [TM4(88-100)] (Ac-A[Sar][Sar][Sar]VVGLALIVAGVVVKKK-NH2) | significant efflux | total absence of hemolysis | > 200 µM |  |  | EtBr resensitization (ER) (E. coli): excellent resensitization; inhibition of Hsmr-mediated EtBr efflux (Hsmr; listed as Hsmr TM4(88-100)): maintain SMR inhibitory function at levels comparable to the full-length TM4 peptide
3 | Ac-A(Sar)3-^88IIGIALINAGVVV^100-KKK-NH2 (Ac-A[Sar][Sar][Sar]IIGIALINAGVVVKKK-NH2; SMILES CC[C@H](C)[C@H](NC(=O)CNC(=O)[C@@H](NC(=O)[C@@H](NC(=O)CN(C)C(=O)CN(C)C(=O)CN(C)C(=O)[C@H](C)NC(C)=O)[C@@H](C)CC)[C@@H](C)CC)C(=O)N[C@@H](C)C(=O)N[C@@H](CC(C)C)C(=O)N[C@H](C(=O)N[C@@H](CC(N)=O)C(=O)N[C@@H](C)C(=O)NCC(=O)N[C@H](C(=O)N[C@H](C(=O)N[C@H](C(=O)N[C@@H](CCCCN)C(=O)N[C@@H](CCCCN)C(=O)N[C@@H](CCCCN)C(N)=O)C(C)C)C(C)C)C(C)C)[C@@H](C)CC) |  |  |  |  |  | inhibition of Psmr-mediated EtBr efflux [2]: inhibition of efflux
4 | Ac-Ala-(Sar)3-LLGIGLIIAGVLV-KKK—NH2 (Ac-A[Sar][Sar][Sar]LLGIGLIIAGVLVKKK-NH2; SMILES CC[C@H](C)[C@H](NC(=O)CNC(=O)[C@H](CC(C)C)NC(=O)[C@H](CC(C)C)NC(=O)CN(C)C(=O)CN(C)C(=O)CN(C)C(=O)[C@H](C)NC(C)=O)C(=O)NCC(=O)N[C@@H](CC(C)C)C(=O)N[C@H](C(=O)N[C@H](C(=O)N[C@@H](C)C(=O)NCC(=O)N[C@H](C(=O)N[C@@H](CC(C)C)C(=O)N[C@H](C(=O)N[C@@H](CCCCN)C(=O)N[C@@H](CCCCN)C(=O)N[C@@H](CCCCN)C(N)=O)C(C)C)C(C)C)[C@@H](C)CC)[C@@H](C)CC) [TM4 peptide] |  |  |  | neither of which individually significantly inhibited bacterial growth | completely abolishes E. coli growth | bacterial growth [3, 4]: < 1%; inhibition of bacterial growth [3, 4]: > 99%
5 | Ac-Ala-(Sar)3-LLVLAGIGIIGLV-KKK—NH2 (Ac-A[Sar][Sar][Sar]LLVLAGIGIIGLVKKK-NH2; SMILES CC[C@H](C)[C@H](NC(=O)CNC(=O)[C@H](C)NC(=O)[C@H](CC(C)C)NC(=O)[C@@H](NC(=O)[C@H](CC(C)C)NC(=O)[C@H](CC(C)C)NC(=O)CN(C)C(=O)CN(C)C(=O)CN(C)C(=O)[C@H](C)NC(C)=O)C(C)C)C(=O)NCC(=O)N[C@H](C(=O)N[C@H](C(=O)NCC(=O)N[C@@H](CC(C)C)C(=O)N[C@H](C(=O)N[C@@H](CCCCN)C(=O)N[C@@H](CCCCN)C(=O)N[C@@H](CCCCN)C(N)=O)C(C)C)[C@@H](C)CC)[C@@H](C)CC) [SCR peptide, scrambled version of TM4 peptide, identical composition but lacking the GG7 motif, reference compound] |  |  |  | neither the mixture of BZK+SCR peptide nor the SCR peptide alone inhibited bacterial growth | neither the mixture of BZK+SCR peptide nor the SCR peptide alone inhibited bacterial growth | inhibition of bacterial growth, peptide together with BZK ([3]; listed as ‘scrambled’ analog of the TM4 peptide): inactive
6 | benzalkonium chloride [BZK, reference compound] |  |  |  | neither of which individually significantly inhibited bacterial growth |  | 
